What was measured:
[1] = test system: Drosophila ct^K mutation in the cut gene (Nipped-B dosage sensitive); assay: ct^K wing margin-nicking phenotype after feeding larvae; format: in vivo; settings: in food from early larval stages (hatching) until pupariation; vs solvent control; FIG. 2
Text: Controls were feed the solvent that was used to dissolve the compounds (DMSO for Indomethacin, PBS for Acemetacin).
(§1) PLoS One; 4(7):e6202, herein incorporated by reference.

[2] = test system: Drosophila cells (ML-DmBG3)
[3] = test system: yeast scc2 and mis4 mutants; assay: Growth of temperature-sensitive cohesin/NIPBL-ortholog mutant yeast strains at semipermissive temperature (optical density); format: cell-based, Saccharomyces cerevisiae; Schizosaccharomyces pombe; settings: relative to vehicle control and parental strains, data not shown
Text: as §1
The Inventors began their screening with a library of FDA-approved drugs for their ability to improve the growth of yeast strains with temperature-sensitive mutations in the NIPBL homologs or orthologs. These included the scc2-4 (Nipped-B) mutation, the smc3-42 (cohesin) mutation, mcd1-1 (cohesin) and pds5-1 (Pds5 cohesion maintenance factor) mutation in Saccharomyces cerevisiae, and the mis4-242 (Nipped-B) mutation, and rad21-K1 (cohesin) mutation in Schizosaccharomyces pombe. […] Compounds that improved the growth rate and/or growth maxima of one or more of the mutant strains relative to the parental strains were retested. An improvement in growth rate was defined as a reproducible increase in either the rate of cell division of a mutant yeast strain during the logarithmic growth or the maximal culture density or both as determined by taking the optical density of the culture every 30 min relative to a vehicle control, and the wild-type yeast controls. […] For this reason, Indomethacin and Acemetacin were chosen for further evaluation.

cohesin-dependent genes = assay: Effect of cohesin depletion on expression of other genes in cultured Drosophila cells; format: cell-based; settings: not shown
Text: as §1

[4] = test system: Drosophila N^spl-1 mutation in the Notch receptor gene; assay: N^spl-1 small rough eye phenotype after treatment; format: in vivo; settings: data not shown
Text: Potential therapeutic compounds may be assayed for their ability to elevate expression of the Nipped-B gene which will enhance the N^spl-1 phenotype, resulting in a decrease in the size of the eye relative to similar untreated subjects.
as §1
The N^spl-1 mutation in the Notch receptor gene causes a small rough eye phenotype. […] (Rollins et a al., (1999) Genetics; 152 (2):577-93).

Nipped-B mRNA = assay: Nipped-B RNA levels in cultured ML-DmBG3 cells by quantitative RT-PCR; format: cell-based, Drosophila; settings: FIG. 3; for effect on Nipped-B RNA in Nipped-B RNAi cells: ML-DmBG3 cells treated with double-stranded RNA to destabilize Nipped-B RNA; for Nipped-B gene RNA transcripts: ML-DmBG3 cells, treatment for 48 hours, RpL32 as standard
Text: as §1

Pparg = Pparg expression in C2C12 myogenic cells by RT-PCR; format: cell-based, mouse; settings: treatment for 3 days, FIG. 4E
Text: as §1
(§2) Expression of these and other adipogenic genes is reduced in Nipbl +/− mice (Kawauchi et al. (2009) PLoS Genet.; 5(9):e1000650), which may explain their reduced fat levels, and potentially why individuals with CdLS tend to be lean.

Myod1 = Myod1 expression in C2C12 myogenic cells by RT-PCR; format: cell-based, mouse; settings: treatment for 3 days, FIG. 4B
Text: as §1, §2

Nipbl mRNA = Nipbl mRNA in C2C12 myogenic cells by RT-PCR; format: cell-based, mouse; settings: Gapdh as standard, FIG. 4A
Text: as §1, §2

mesenchymal stem cells = settings: by increasing expression of C/EBPβ and PPARγ2 independently of COX inhibition (Styner et al. 2010); cited from earlier work
Cepba = Cepba expression in C2C12 myogenic cells by RT-PCR; format: cell-based, mouse; settings: treatment for 3 days, FIG. 4D
Text: as §1, §2

Myog = Myog expression in C2C12 myogenic cells by RT-PCR; format: cell-based, mouse; settings: treatment for 3 days, FIG. 4C
Text: as §1, §2

SMILES | occurrence of wing nicking defect (ct^K) [1] | toxicity [2] | growth rate and/or growth maxima of mutant yeast strains [3] | effect of cohesin depletion on expression of other genes (cohesin-dependent genes) | N^spl-1 eye phenotype (eye size) [4] | effect on Nipped-B RNA in Nipped-B RNAi cells (Nipped-B mRNA) | Nipped-B gene RNA transcripts (Nipped-B mRNA) | expression of Pparg adipogenic gene (Pparg) | expression of Myod1 myogenic gene (Myod1) | expression of Nipbl (Nipbl mRNA) | adipogenesis (mesenchymal stem cells) | expression of Cepba adipogenic gene (Cepba) | expression of Myog myogenic gene (Myog)
COc1ccc2c(c1)c(CC(=O)OCC(=O)O)c(C)n2C(=O)c1ccc(Cl)cc1 [Acemetacin] | reducing the occurrence of this developmental defect | some toxicity | improved the growth of the mutant strains | reduce the effect of cohesin depletion | enhances the N^spl-1 phenotype, decreasing the size of the eye | blocked by Nipped-B RNAi | increase Nipped-B gene RNA transcripts | – | – | – | – | – | –
COc1ccc2c(c1)c(CC(=O)O)c(C)n2C(=O)c1ccc(Cl)cc1 [Indomethacin] | reducing the occurrence of this developmental defect | – | improved the growth of the mutant strains | reduce the effect of cohesin depletion | – | blocked by Nipped-B RNAi | increase Nipped-B gene RNA transcripts | increased expression | reduced expression | increases expression | promotes adipogenesis | increased expression | reduced expression
